Results on six compounds are retold here after ChEMBL document CHEMBL1124092 (J Med Chem, 1988).

Experiment [1] deals with T1, 5-hydroxytryptamine receptor 1A (Rattus norvegicus, UniProt P19327).
T1 sequence (P19327 whole entry): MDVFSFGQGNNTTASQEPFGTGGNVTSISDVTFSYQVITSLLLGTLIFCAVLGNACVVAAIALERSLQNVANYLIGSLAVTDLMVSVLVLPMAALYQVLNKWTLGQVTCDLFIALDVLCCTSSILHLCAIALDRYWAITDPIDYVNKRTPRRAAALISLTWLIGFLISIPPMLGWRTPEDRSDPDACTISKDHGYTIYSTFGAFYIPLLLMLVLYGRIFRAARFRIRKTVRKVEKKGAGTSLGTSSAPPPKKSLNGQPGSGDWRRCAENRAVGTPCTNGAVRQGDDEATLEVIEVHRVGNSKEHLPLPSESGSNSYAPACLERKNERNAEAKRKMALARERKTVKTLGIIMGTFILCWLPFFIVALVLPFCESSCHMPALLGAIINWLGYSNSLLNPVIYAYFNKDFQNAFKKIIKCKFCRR
Nature of the experiment: Binding affinity against 5-hydroxytryptamine 1A receptor in rat hippocampal tissue. The format is tissue-based, Hippocampus.

For experiment [2], the target named is T2, 5-hydroxytryptamine receptor 1B (Rattus norvegicus, UniProt P28564). Nature of the experiment: Binding affinity against 5-HT1B serotonin receptor in rat striatum. The format is tissue-based.
T2 sequence (P28564 whole entry): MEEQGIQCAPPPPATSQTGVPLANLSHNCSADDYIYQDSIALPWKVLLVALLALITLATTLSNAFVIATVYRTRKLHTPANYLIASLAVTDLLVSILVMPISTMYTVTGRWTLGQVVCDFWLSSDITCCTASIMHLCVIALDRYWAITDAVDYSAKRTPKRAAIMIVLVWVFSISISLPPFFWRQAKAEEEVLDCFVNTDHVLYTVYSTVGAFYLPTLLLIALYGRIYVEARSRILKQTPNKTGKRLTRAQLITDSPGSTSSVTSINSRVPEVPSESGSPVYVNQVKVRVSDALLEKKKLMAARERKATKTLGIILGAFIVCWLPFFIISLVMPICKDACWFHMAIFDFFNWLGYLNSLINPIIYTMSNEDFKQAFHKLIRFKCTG
The subject of experiment [3] is Rattus norvegicus. Nature of the experiment: DOM appropriate response rate in % at 1.0 mg/kg where stimulus generalization occurred (5/5 no of animals). It is filed as functional.
Experiment [4] has as its system Rattus norvegicus. Nature of the experiment: DOM appropriate response of animals/min at 1.0 mg/kg where stimulus generalization occurred (5/5 no of animals). It is filed as functional.
Experiment [5] concerns the target T1, 5-hydroxytryptamine receptor 1A. The experiment in a line: Binding affinity towards 5-hydroxytryptamine 1A receptor.
Experiment [6] has as its target T2, 5-hydroxytryptamine receptor 1B. The experiment in a line: Evaluated for binding affinity towards 5-hydroxytryptamine 1B receptor.
Experiment [7] deals with T3, Serotonin 2 (5-HT2) receptor (Rattus norvegicus, UniProt P30994+P08909+P14842). The experiment in a line: Binding affinity towards 5-hydroxytryptamine 2 receptor using [3H]- 1-(4-bromo-2,5-dimethoxy-phenyl)-2-aminopropane (D) as radioligand. It is filed as protein assay.
The target in experiment [8] is T3, Serotonin 2 (5-HT2) receptor. Nature of the experiment: Binding affinity towards 5-hydroxytryptamine 2 receptor using [3H]- ketanserin as radioligand. It is filed as protein assay.
In experiment [9] the test system is Rattus norvegicus. The experiment in a line: The dose at which the animals would show 50% responses on DOM appropriate lever at a dose 6.0 mg/kg. The format is functional.
Experiment [10] deals with Rattus norvegicus. The experiment in a line: 8-OH-DPAT appropriate response rate in % at 0.4 mg/kg where stimulus generalization occurred(4/5 no of animals). It is filed as functional.
The subject of experiment [11] is Rattus norvegicus. Nature of the experiment: 8-OH-DPAT appropriate response rate in % at 0.8 mg/kg where stimulus generalization occurred(3/4 no of animals). The format is functional.
Experiment [12] relates to Rattus norvegicus. Nature of the experiment: 8-OH-DPAT appropriate response rate in % at 0.9 mg/kg where stimulus generalization occurred (4/7 no of animals). The format is functional.
Experiment [13] deals with Rattus norvegicus. The experiment in a line: 8-OH-DPAT appropriate response rate in % at 1.0 mg/kg where stimulus generalization occurred(4/5 no of animals). The format is functional.
In experiment [14] the test system is Rattus norvegicus. Nature of the experiment: 8-OH-DPAT appropriate response rate in % at 1.1 mg/kg where stimulus generalization occurred(4/5 no of animals). It is filed as functional.
For experiment [15], the species on record is Rattus norvegicus. The experiment in a line: 8-OH-DPAT appropriate response rate in % at […] where stimulus generalization occurred(2/5 no of animals); No responding. The format is functional, organism-based. Also on record: dose 1.2 mg/kg.
The test system of experiment [16] is Rattus norvegicus. The experiment in a line: DOM appropriate response rate in % at 0.6 mg/Kg where stimulus generalization occurred(5/5 no of animals). The format is functional.
The species entered for experiment [17] is Rattus norvegicus. Nature of the experiment: DOM appropriate response rate in % at […] where stimulus generalization occurred(5/5 no of animals). It is filed as functional.
Experiment [18] relates to Rattus norvegicus. The experiment in a line: DOM appropriate response rate in % at 2.0 mg/Kg where stimulus generalization occurred(4/5 no of animals). The format is functional.
The test system of experiment [19] is Rattus norvegicus. The experiment in a line: DOM appropriate response rate in % at 5.0 mg/Kg where stimulus generalization occurred(4/5 no of animals). It is filed as functional.
In experiment [20] the test system is Rattus norvegicus. Nature of the experiment: 8-OH-DPAT appropriate response of animals/min rate in % 1.0 mg/kg where stimulus generalization occurred(4/5 no of animals). It is filed as functional.
Experiment [21] deals with Rattus norvegicus. Nature of the experiment: 8-OH-DPAT appropriate response of animals/min rate in % 1.1 mg/kg where stimulus generalization occurred(4/5 no of animals). The format is functional.
The subject of experiment [22] is Rattus norvegicus. The experiment in a line: 8-OH-DPAT appropriate response of animals/min rate in % 0.4 mg/kg where stimulus generalization occurred(4/5 no of animals). The format is functional.
In experiment [23] the test system is Rattus norvegicus. Nature of the experiment: 8-OH-DPAT appropriate response of animals/min rate in % 0.9 mg/kg where stimulus generalization occurred(4/7 no of animals). It is filed as functional.
The subject of experiment [24] is Rattus norvegicus. The experiment in a line: DOM appropriate response of animals/min rate in % at 5.0 mg/Kg where stimulus generalization occurred(4/5 no of animals). It is filed as functional.
Experiment [25] concerns Rattus norvegicus. The experiment in a line: DOM appropriate response rate in % at 6.0 mg/Kg where stimulus generalization occurred(3/5 no of animals). It is filed as functional.
Experiment [26] relates to Rattus norvegicus. The experiment in a line: DOM appropriate response of animals/min rate in % at 0.6 mg/Kg where stimulus generalization occurred(5/5 no of animals). The format is functional.
In experiment [27] the test system is Rattus norvegicus. The experiment in a line: DOM appropriate response of animals/min rate in % at 6.0 mg/Kg where stimulus generalization occurred(3/5 no of animals). It is filed as functional.
For experiment [28], the species on record is Rattus norvegicus. The experiment in a line: DOM appropriate response of animals/min rate in % at […] where stimulus generalization occurred(5/5 no of animals). The format is functional.
Experiment [29] concerns Rattus norvegicus. Nature of the experiment: DOM appropriate response of animals/min rate in % at 2.0 mg/kg where stimulus generalization occurred(4/5 no of animals). The format is functional.
The test system of experiment [30] is Rattus norvegicus. The experiment in a line: 8-OH-DPAT appropriate response of animals/min rate in % 0.8 mg/kg where stimulus generalization occurred(3/4 no of animals). The format is functional.
The species named for experiment [31] is Rattus norvegicus. Nature of the experiment: The dose at which the animals show 50% responses on drug-appropriate lever. The format is functional.
For experiment [32], the species on record is Rattus norvegicus. Nature of the experiment: The dose at which the animals would show 50% responses on compound-appropriate lever. It is filed as functional.
Experiment [33] concerns Rattus norvegicus. Nature of the experiment: The dose at which the animals would show 50% response on 8-OH-DPAT appropriate lever at a dose 0.2 mg/kg (7/7 no of animals). The format is functional.
For experiment [34], the system named is Rattus norvegicus. Nature of the experiment: 8-OH-DPAT appropriate response rate in % at 0.2 mg/kg where stimulus generalization occurred(7/7 no of animals). The format is functional.
Experiment [35] deals with Rattus norvegicus. The experiment in a line: 8-OH-DPAT appropriate response of animals/min rate in %0.2 mg/Kg where stimulus generalization occurred(7/7 no of animals). It is filed as functional.

The source made the active and inactive calls. No cut-off for these calls is given here.

As for `COc1cc(CC(C)N)c(OC)cc1C` (configuration not stated) [DOM], the Ki in experiment [1] came to 5120 nM; in experiment [2], 2070 nM. In the experiment with Rattus norvegicus [3], this compound showed a Responding of 92%. The Response in the experiment with Rattus norvegicus [4] was 12.8.

Turning to `CCCN(CCC)CCc1c[nH]c2ccc(O)cc12`, the Ki came out at 7.1 nM in [5], 4300 nM in experiment [6], 1 nM in experiment [7] and 450 nM in experiment [8].

As for `CCCN(CCC)CCc1c[nH]c2ccc(OC)cc12`, the Ki in experiment [5] was found to be 4 nM; in experiment [6], 1800 nM; in [7], 7.1 nM; in [8] it was 655 nM. In the experiment on Rattus norvegicus [9], this compound registered an ED50 of 1.68 mg/kg. Moreover, the Responding with Rattus norvegicus [10] is on record as 15%; in the experiment with Rattus norvegicus [11], 56%; in the experiment on Rattus norvegicus [12], 56%; in the experiment with Rattus norvegicus [13] it was 67%; in the experiment with Rattus norvegicus [14] it was 81%; in the experiment on Rattus norvegicus [16], 21%. The Responding amounted to 49% in the experiment filed under Rattus norvegicus [17], 51% with Rattus norvegicus [18], 74% with Rattus norvegicus [19] and 91% in the experiment with Rattus norvegicus [25]. Moreover, in the experiment listed under Rattus norvegicus [15], the Responding entry is “inactive”. In addition, the Response amounted to 5.6 with Rattus norvegicus [20]; 4.1 in the experiment with Rattus norvegicus [21]; 13.6 in the experiment on Rattus norvegicus [22]; 13.6 in the experiment with Rattus norvegicus [23]; 10.3 in the experiment with Rattus norvegicus [24]; 10.2 in the experiment on Rattus norvegicus [26]. In addition, the Response in the experiment with Rattus norvegicus [27] is 5.2; in the experiment listed under Rattus norvegicus [28], 12.3; in the experiment with Rattus norvegicus [29] it was 12; with Rattus norvegicus [30], 9.2.

Take `COc1ccc2[nH]cc(CCN(C)C)c2c1` [MEBUFOTENIN]: the inhibition constant (Ki) is 7.8 nM in [5] and 350 nM in experiment [6]. This compound also had an ED50 in the experiment listed under Rattus norvegicus [31] of 1.43 mg/kg.

As to `CCCN(CCC)C1CCc2cccc(OC)c2C1` (configuration not stated), the Ki in experiment [5] is 1.3 nM; in experiment [6] it was more than 1000 nM; in [7], 280 nM; in experiment [8], 3050 nM. In the experiment filed under Rattus norvegicus [32], the 50% effect level (ED50) was put at a dose of 0.22 mg/kg.

Take `CCCN(CCC)C1CCc2cccc(O)c2C1` (configuration not stated) [8-OH-DPAT]: the Ki came out at 635 nM in experiment [7] and 5350 nM in [8]. The compound also showed a median effective dose (ED50) in the experiment with Rattus norvegicus [33] of 0.08 mg/kg. In the experiment with Rattus norvegicus [34], the Responding came to 88%. For the same compound, the Response in the experiment with Rattus norvegicus [35] is 16.8.
